Data taken from patent US20080221132A1, “Multi-Functional Small Molecules as Anti-Proliferative Agents” (priority 2006, published 2008).

How the values were obtained:
Lung_H1703 = test: Cell proliferation assay (ATPlite), H1703; assay type: cell-based; conditions: Homo sapiens, NCI-H1703; TABLE C; 72 hours, 0.5% fetal bovine serum, ATP content; read-out: IC50 grading, Lung_H1703
Experimental: (§1) A representative number of compounds were assayed against several different cell lines using the cell proliferation assay:
(§2) Cell Proliferation Assay:
(§3) Cancer cell lines were plated at 5,000 to 10,000 per well in 96-well flatted bottomed plates with various concentration of compounds. The cells were incubated with compounds for 72 hours in the presence of 0.5% of fetal bovine serum. Growth inhibition was accessed by adenosine triphosphate (ATP) content assay using Perkin Elmer ATPlite kit. ATPlite is an ATP monitoring system based on firefly luciferase. Briefly, 25 μl of mammalian cell lysis solution was added to 50 μl of phenol red-free culture medium per well to lyse the cells and stabilize the ATP. 25 μl of substrate solution was then added to the well and subsequently the luminescence was measured.

in vivo = conditions: male, CD-1, mouse, ip; for AUC: AUC (h * ng/ml)
Experimental: Drug Preparation and Administration.
Blood and tissue Sample Collection.
Plasma Sample Extraction. Plasma samples were prepared by protein precipitation. An internal standard was added into plasma samples. […] The supernatant was then injected onto LC/MS/MS.
Samples were compared to standards made in plasma. These standards were prepared by serial dilution.
Tissue Sample Extraction. […] Tissues were homogenized in 0.8 ml water. An internal standard was added into the tissue homogenates.
LC/MS/MS Analytical Methods.
LC Conditions are shown below:

Lung_H1975 = test: Cell proliferation assay (ATPlite), H1975; assay type: cell-based; conditions: Homo sapiens, NCI-H1975; TABLE C; 72 hours, 0.5% fetal bovine serum, ATP content; read-out: IC50 grading, Lung_H1975
Experimental: as §1, §2, §3

Lyn Kinase = Lyn Kinase (Homo sapiens, UniProt P07948); test: Kinase panel (TABLE F), Lyn Kinase; assay type: biochemical
Sequence of Lyn Kinase (P07948 whole entry): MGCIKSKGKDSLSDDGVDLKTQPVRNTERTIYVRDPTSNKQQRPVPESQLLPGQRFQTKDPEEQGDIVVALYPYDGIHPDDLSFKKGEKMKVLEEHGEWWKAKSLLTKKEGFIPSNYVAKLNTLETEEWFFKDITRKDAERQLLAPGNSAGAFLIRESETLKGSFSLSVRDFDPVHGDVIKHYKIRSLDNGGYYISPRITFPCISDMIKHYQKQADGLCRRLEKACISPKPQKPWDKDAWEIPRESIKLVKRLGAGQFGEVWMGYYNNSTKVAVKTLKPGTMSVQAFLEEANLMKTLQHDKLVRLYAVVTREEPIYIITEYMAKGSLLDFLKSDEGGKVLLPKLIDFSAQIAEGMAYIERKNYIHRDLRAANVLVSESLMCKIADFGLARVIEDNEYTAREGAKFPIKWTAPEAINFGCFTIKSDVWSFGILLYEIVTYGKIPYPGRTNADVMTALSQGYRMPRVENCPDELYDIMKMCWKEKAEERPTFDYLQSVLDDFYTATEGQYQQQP

Lung_H2122 = test: Cell proliferation assay (ATPlite), H2122; assay type: cell-based; conditions: Homo sapiens, NCI-H2122; TABLE C; 72 hours, 0.5% fetal bovine serum, ATP content; read-out: IC50 grading, Lung_H2122
Experimental: as §1, §2, §3

[1] = tested on: Breast_MDAMB468 (MDA-MB-468, breast adenocarcinoma); test: Cell proliferation assay (ATPlite), MDA-MB-468; assay type: cell-based; conditions: Homo sapiens, TABLE C, 72 hours, 0.5% fetal bovine serum, ATP content, read-out: IC50 grading, Breast_MDAMB468
Experimental: as §1, §2
as §3, with “The cells were incubated with compounds for 72 hours in the presence of 0.5% of fetal bovine serum.” left out

Compound: C#Cc1cccc(Nc2ncnc3cc(OC)c(OCCCCCCC(=O)NO)cc23)c1 [Compound 12]
- IC50 (Lung_H1703): 100 to 1000 nM
- AUC (in vivo; 20 mg/kg): 3750 ng·h/mL
- AUC (in vivo; 60 mg/kg): 5720 ng·h/mL
- Cmax (in vivo; 60 mg/kg, Cmax (uM)): 14.4 µM
- IC50 (Lung_H1975): 100 to 1000 nM
- inhibition at 5 µM (Lyn Kinase): 95%
- IC50 (Lung_H2122): 100 to 1000 nM
- IC50 [1]: < 100 nM
